# In US20060173066A1, “Remedy for diabetes” (Kyowa Hakko Kogyo Co., Ltd., priority 2003, published 2006):
# What was measured:
# C2C12 cells = assay: Example 6: consumption of glucose of differentiated C2C12 cells (glucose concentration in supernatant); type: cell-based, mouse; details: for Glucose (concentration in supernatant after incubation): 3 days incubation, mean ± standard deviation, n=3; for action on insulin effect on muscle (conclusion from Table 8): 100 μg/ml with insulin 0.1 μg/ml; for insulin concentration necessary to achieve the same result if insulin is used solely: relative to 0.1 μg/ml insulin used with 100 μg/ml test substance (1 μg/ml)
# Method: Each 1.2×10^5 C2C12 cells (cell strain derived from striated muscles of mouse; Dainippon Pharmaceutical Co., Ltd.) was inoculated on a 12-well plate and incubated at 37° C. for 3 days in a CO2 incubator (5% CO2/95% air) with a DMEM medium (manufactured by Invitrogen) to which 10% fetal bovine serum (manufactured by Invitrogen) was added. When the cells became confluent, the medium was exchanged to a DMEM medium to which 2% horse serum (manufactured by Invitrogen) was added and incubation was further conducted for 4 days to differentiate to myotubes. The medium was exchanged once again with a DMEM medium to which 2% horse serum was added and further incubated for 3 days after addition of bovine insulin (manufactured by Invitrogen) so as to make its final concentration 1 μg/ml or 0.1 μg/ml, a mixture of bovine insulin and trans-4-hydroxy-L-proline methyl ester (manufactured by Kokusan Chemical Co., Ltd.; hereinafter, referred to as hydroxyproline methyl ester) so as to make their final concentrations 0.1 μg/ml and 100 μg/ml, respectively or a mixture of bovine insulin and hydroxyproline ethyl ester so as to make their final concentrations 0.1 μg/ml and 100 μg/ml, respectively. Each of the supernatant liquids after the incubation was recovered and glucose concentration was measured by a Glucose CII Test Wako (manufactured by Wako Pure Chemical Industries, Ltd.) whereby consumption of glucose of the differentiated C2C12 cells was investigated. The values are shown by mean value±standard deviation (n=3, mg/l) and statistic ratio of risk (p value) was determined by a t-test.
# [1] = test system: KK-Ay/Ta Jcl mice of a type 2 diabetic model; assay: Example 2: non-fasting blood-sugar level in mice fed CE-2 feed with 1% by weight of test substance; type: in vivo; details: for antidiabetic action (conclusion from Table 3): 10 days; for Blood-Sugar Level, 10th Day of the Test / Blood-Sugar Level, Initial Day of the Test: non-fasting, tail vein blood, mean ± standard error, n=5; for Blood-Sugar Level, Initial Day of the Test: initial day (baseline)
# Source text: (§1) KK-Ay/Ta Jcl mice (Clea Japan, Inc.; male;,six weeks age) (15 mice) of a type 2 diabetic model were divided into three groups each comprising five mice and named group 1 to group 3.
# (§2) The mice of the groups 1 to 3 were made free to take feed and water. A commercially available feed CE-2 (manufactured by Clea Japan, Inc.) was ingested to the mice of group 1. CE-2 to which 1% by weight of trans-4-hydroxy-L-proline ethyl ester (manufactured by Sanyo Chemical Laboratory Co., Ltd.; hereinafter, abbreviated as hydroxyproline ethyl ester) was added was ingested to the mice of group 2. CE-2 to which 1% by weight of trans-N,O-diacetyl-4-hydroxy-L-proline oleyl ester (manufactured by Nissei Kagaku; hereinafter, abbreviated as diacetylhydroxyproline oleyl ester) was added was ingested to the mice of group 3.
# (§3) On the initial day of the test and on the 10th day thereafter, blood was collected from tail vein and blood-sugar level upon non-fasting was measured by a Medisafe Reader GR-101. The mice were fasted for 18 hours during the 10th day to the 11th day after the start of the test and whole blood was collected from descending vena cava to prepare serum. The serum-insulin level was measured by a Levi Insulin Kit Mouse-T. The value was shown by mean value±standard error (n=5) and statistic ratio of risk (p value) was determined by a t-test. With regard to the ingested amounts during the test periods, there was no significant difference among the groups 1 to 3.
# [2] = test system: KK-Ay/Ta Jcl mice of a type 2 diabetic model; assay: Example 2: serum-insulin level after 18 hours fasting in mice fed CE-2 feed with 1% by weight of test substance; type: in vivo; details: for Serum-Insulin Level: 11th day after 18 hours fasting, mean ± standard error, n=5
# Source text: as §1, §2, §3
# [3] = test system: KK-Ay/Ta Jcl mice of a type 2 diabetic model; assay: Example 1: non-fasting blood-sugar level in mice fed CE-2 feed with 1% by weight of test substance; type: in vivo
# Source text: (§4) KK-Ay/Ta Jcl mice (Clea Japan, Inc.; male; six weeks age) (15 mice) of a type 2 diabetic model were divided into three groups each comprising five mice and named group 1 to group 3.
# (§5) The mice of the groups 1 to 3 were made free to take feed and water. A commercially available feed CE-2 (manufactured by Clea Japan, Inc.) was ingested to the mice of group 1. CE-2 to which 1% by weight of trans-4-hydroxy-L-proline (manufactured by Kyowa Hakko Kogyo; hereinafter, abbreviated as hydroxyproline) was added was ingested to the mice of group 2. CE-2 to which 1% by weight of trans-N-acetyl-4-hydroxy-L-proline (manufactured by Kyowa Hakko Kogyo; hereinafter, abbreviated as N-acetylhydroxyproline) was added was ingested to the mice of group 3.
# as §3, with “17th” for “10th”, “GR-101 (manufactured by Thermo Co.).” for “GR-101.”, “18th” for “11th”, “Mouse-T (manufactured by Shibayagi).” for “Mouse-T.”
# [4] = test system: KK-Ay/Ta Jcl mice of a type 2 diabetic model; assay: Example 1: serum-insulin level after 18 hours fasting in mice fed CE-2 feed with 1% by weight of test substance; type: in vivo
# Source text: as §4, §5
# as §3, with “17th” for “10th”, “GR-101 (manufactured by Thermo Co.).” for “GR-101.”, “18th” for “11th”, “Mouse-T (manufactured by Shibayagi).” for “Mouse-T.”
# [5] = test system: KK-Ay/Ta Jcl mice of a type 2 diabetic model; assay: Example 3: blood-sugar level after oral glucose load in fasted mice; type: in vivo; details: 1 g/kg B.W. oral
# Method: KK-Ay/Ta Jcl mice (Clea Japan, Inc.; male; six weeks age) (16 mice) of a type 2 diabetic model were divided into 2 groups each comprising 8 mice and named group 1 and group 2.
# After fasting for 18 hours, a physiological saline solution was orally administered to the mice of the group 1 while, to the mice of the group 2, 1 g/kg body weight (hereinafter, referred to as “B.W.”) of a 20% (w/v) aqueous solution of the N-acetylhydroxyproline (dissolved in a physiological saline solution) was orally administered. After 1 hour, 2 g/kg B.W. of a 40% (w/v) aqueous solution of glucose was orally administered to the mice of the groups 1 and 2 to load with sugar. Blood was collected from tail vein 60 minutes before (−60 minutes) administration of the aqueous glucose solution, upon the administration (0 minute) and 30 and 120 minutes after the administration and blood-sugar levels were measured by a Medisafe Reader GR-101. The value was shown by mean value±standard error (n=8) and statistic ratio of risk (p value) was determined by a t-test.
# [6] = co-presence of 0.1 μg/ml of insulin and 100 μg/ml of test substance, vs insulin 0.1 μg/ml
# [7] = test substance 100 μg/ml together with insulin 0.1 μg/ml
Compound,antidiabetic action (conclusion from Table 3) [1],"Blood-Sugar Level, 10th Day of the Test [1]","Blood-Sugar Level, Initial Day of the Test [1]",antidiabetic action by improving insulin resistance (conclusion from Tables 3 and 4) [2],Serum-Insulin Level [2],action on insulin effect on muscle (conclusion from Table 8) (C2C12 cells),consumption of glucose of C2C12 cells (C2C12 cells; [6]),insulin concentration necessary to achieve the same result if insulin is used solely (C2C12 cells),Glucose (concentration in supernatant after incubation) (C2C12 cells; [7]),other results
Insulin: bovine insulin (manufactured by Invitrogen) [reference compound],,,,,,,,,,"consumption of glucose of C2C12 cells (C2C12 cells; addition of 0.1 μg/ml of insulin, vs nothing added): significantly promoted; Glucose (concentration in supernatant after incubation) (C2C12 cells; insulin 0.1 μg/ml alone): 1260 ± 15 *^1 mg/; Glucose (concentration in supernatant after incubation) (C2C12 cells; insulin 1 μg/ml alone): 942 ± 34 mg/L"
"CCCCCCCC/C=C\CCCCCCCCOC(=O)[C@@H]1C[C@@H](OC(C)=O)CN1C(C)=O (relative stereo) [diacetylhydroxyproline oleyl ester, trans-N,O-diacetyl-4-hydroxy-L-proline oleyl ester]",antidiabetic action,215.2 ± 20.3 mg/dL,241.0 ± 11.0 mg/dL,show an antidiabetic action by improving the insulin resistance,0.64 ± 0.12 ng/mL,,,,,
"CCOC(=O)[C@@H]1C[C@@H](O)CN1 [hydroxyproline ethyl ester, trans-4-hydroxy-L-proline ethyl ester]",antidiabetic action,217.2 ± 11.3 mg/dL,253.0 ± 9.5 mg/dL,show an antidiabetic action by improving the insulin resistance,0.52 ± 0.10 ng/mL,potentiate the action of insulin to the muscle,significantly increased,ten-fold,984 ± 29 mg/L,
"CC(=O)N1C[C@H](O)C[C@H]1C(=O)O [N-acetylhydroxyproline, trans-N-acetyl-4-hydroxy-L-proline]",,,,,,,,,,"antidiabetic action (conclusion from Table 1) ([3]; 17 days): antidiabetic action; Blood-Sugar Level, 17th Day of the Test ([3]; non-fasting, tail vein blood, 17th day, mean ± standard error, n=5): 226.2 ± 12.9 mg/dL; Blood-Sugar Level, Initial Day of the Test ([3]; non-fasting, tail vein blood, initial day (baseline), mean ± standard error, n=5): 241.0 ± 15.5 mg/dL; antidiabetic action by improving insulin resistance (conclusion from Tables 1 and 2) [4]: show an antidiabetic action by improving the insulin resistance; Serum-Insulin Level ([4]; 18th day after 18 hours fasting, mean ± standard error, n=5): 0.69 ± 0.06 ng/mL; antidiabetic action (conclusion from Table 5) ([5]; glucose load): antidiabetic action; Blood-Sugar Level, 30 min ([5]; 30 minutes after glucose 2 g/kg, mean ± standard error, n=8): 407.1 ± 17.1 mg/dL; Blood-Sugar Level, −60 min ([5]; 60 minutes before glucose 2 g/kg (baseline, at dosing), mean ± standard error, n=8): 159.4 ± 5.6 mg/dL; Blood-Sugar Level, 120 min ([5]; 120 minutes after glucose 2 g/kg, mean ± standard error, n=8): 210.4 ± 14.4 mg/dL; Blood-Sugar Level, 0 min ([5]; upon glucose administration 2 g/kg, mean ± standard error, n=8): 179.9 ± 11.6 mg/dL"
"COC(=O)[C@@H]1C[C@@H](O)CN1 [hydroxyproline methyl ester, trans-4-hydroxy-L-proline methyl ester]",,,,,,potentiate the action of insulin to the muscle,significantly increased,ten-fold,926 ± 47 mg/L,
